Experimental data reported in paper PMC4890880 (ACS infectious diseases, 2016).
Read-outs that look alike come from different tables or passages of the source.

What was measured:
[1] = test system: Plasmodium berghei (Pb-Luc) exoerythrocytic-stage parasites; conditions: for normalized signal at concentration 0.000508053 / normalized signal at concentration 0.00152416 / normalized signal at concentration 0.00457247 / normalized signal at concentration 0.0137174 / normalized signal at concentration 0.0411523 / normalized signal at concentration 0.123457 / normalized signal at concentration 0.37037 / normalized signal at concentration 1.11111 / normalized signal at concentration 3.33333 / normalized signal at concentration 10: fraction of control; for IC50: read-out: PbLuc_IC50; for IC50 / PbLuc_max_inhibition (%): sheet 2nd round; for PbLuc_max_inhibition (%): maximal inhibition in dose response
HepG2-A16-CD81EGFP cells = conditions: sheet 2nd round; for IC50: read-out: Tox_IC50, HepG2 cytotoxicity; for Tox_max_inhibition (%): maximal inhibition in dose response
[2] = Pb-Luc exoerythrocytic stage, 10-point dose response, top concentration 10
[3] = second series of columns (replicate)
[4] = first series of dose-response columns
[5] = second series of dose-response columns

Compound: O=C(Nc1ccc2c(c1)[C@@H]1C[C@@H](CC(=O)N3CCc4ccccc4C3)O[C@@H](CO)[C@@H]1O2)c1ccc2c(c1)OCO2 [BRD-K15778794-001-01-7]
- normalized signal at concentration 0.000508053 ([1]; first series of columns): 1.025
- normalized signal at concentration 0.00152416 ([1]; first series of columns): 1.17
- normalized signal at concentration 0.00457247 ([1]; first series of columns): 0.8971
- normalized signal at concentration 0.0137174 ([1]; first series of columns): 1.186
- normalized signal at concentration 0.0411523 ([1]; first series of columns): 1.0917
- normalized signal at concentration 0.123457 ([1]; first series of columns): 0.8992
- normalized signal at concentration 0.37037 ([1]; first series of columns): 1.075
- normalized signal at concentration 1.11111 ([1]; first series of columns): 1.105
- normalized signal at concentration 3.33333 ([1]; first series of columns): 0.9056
- normalized signal at concentration 10 ([1]; first series of columns): 0.4372
- IC50 [1, 2]: > 10 µM
- normalized signal at concentration 0.000508053 [1, 3]: 0.9828
- normalized signal at concentration 0.00152416 [1, 3]: 0.8672
- normalized signal at concentration 0.00457247 [1, 3]: 0.9127
- normalized signal at concentration 0.0137174 [1, 3]: 0.911
- normalized signal at concentration 0.0411523 [1, 3]: 0.8229
- normalized signal at concentration 0.123457 [1, 3]: 0.8258
- normalized signal at concentration 0.37037 [1, 3]: 0.9225
- normalized signal at concentration 1.11111 [1, 3]: 1.043
- normalized signal at concentration 3.33333 [1, 3]: 0.8183
- normalized signal at concentration 10 [1, 3]: 0.6797
- PbLuc_max_inhibition (%) [1]: 56%
- IC50 (HepG2-A16-CD81EGFP cells): > 10 µM
- Tox_max_inhibition (%) (HepG2-A16-CD81EGFP cells): 18%

Compound: COCC(=O)N1C[C@H](C)[C@@H](OC)CN(C)C(=O)c2ccc(NC(=O)Nc3cccc(F)c3)cc2OC[C@@H]1C [BRD-K86826411-001-01-1]
- normalized signal at concentration 10 [1, 4]: 0.9867
- normalized signal at concentration 0.000508053 ([1]; first series): 0.8374
- normalized signal at concentration 0.00152416 ([1]; first series): 0.9593
- normalized signal at concentration 0.00457247 ([1]; first series): 1.078
- normalized signal at concentration 0.0137174 ([1]; first series): 1.13
- normalized signal at concentration 0.0411523 ([1]; first series): 1.203
- normalized signal at concentration 0.123457 ([1]; first series): 1.151
- normalized signal at concentration 0.37037 ([1]; first series): 1.155
- normalized signal at concentration 1.11111 ([1]; first series): 1.129
- normalized signal at concentration 3.33333 ([1]; first series): 1.057
- IC50 ([1]; Broad compounds, dose response): > 10 µM
- normalized signal at concentration 10 [1, 5]: 0.6676
- normalized signal at concentration 0.000508053 ([1]; second series): 0.905
- normalized signal at concentration 0.00152416 ([1]; second series): 1.0576
- normalized signal at concentration 0.00457247 ([1]; second series): 1.018
- normalized signal at concentration 0.0137174 ([1]; second series): 1.011
- normalized signal at concentration 0.0411523 ([1]; second series): 0.9885
- normalized signal at concentration 0.123457 ([1]; second series): 1.0489
- normalized signal at concentration 0.37037 ([1]; second series): 0.9498
- normalized signal at concentration 1.11111 ([1]; second series): 1.1227
- normalized signal at concentration 3.33333 ([1]; second series): 1.155
- PbLuc_max_inhibition (%) [1]: 33%
- IC50 (HepG2-A16-CD81EGFP cells): > 10 µM
- Tox_max_inhibition (%) (HepG2-A16-CD81EGFP cells): 13%

Compound: CN(C)C(=O)c1ccc(-c2ccc([C@@H]3[C@H]4CN(C(=O)CC5CC5)CC(=O)N4[C@H]3CO)cc2)cc1 [BRD-K27481961-001-01-1]
- normalized signal at concentration 10 [1, 4]: 1.04
- normalized signal at concentration 0.000508053 ([1]; first series): 0.88
- normalized signal at concentration 0.00152416 ([1]; first series): 0.98
- normalized signal at concentration 0.00457247 ([1]; first series): 1.01
- normalized signal at concentration 0.0137174 ([1]; first series): 0.77
- normalized signal at concentration 0.0411523 ([1]; first series): 0.91
- normalized signal at concentration 0.123457 ([1]; first series): 0.95
- normalized signal at concentration 0.37037 ([1]; first series): 0.98
- normalized signal at concentration 1.11111 ([1]; first series): 1.00
- normalized signal at concentration 3.33333 ([1]; first series): 0.94
- IC50 ([1]; Broad compounds, dose response): > 10 µM
- normalized signal at concentration 10 [1, 5]: 0.89
- normalized signal at concentration 0.000508053 ([1]; second series): 1.05
- normalized signal at concentration 0.00152416 ([1]; second series): 1.04
- normalized signal at concentration 0.00457247 ([1]; second series): 0.89
- normalized signal at concentration 0.0137174 ([1]; second series): 0.89
- normalized signal at concentration 0.0411523 ([1]; second series): 0.96
- normalized signal at concentration 0.123457 ([1]; second series): 1.12
- normalized signal at concentration 0.37037 ([1]; second series): 1.12
- normalized signal at concentration 1.11111 ([1]; second series): 0.98
- normalized signal at concentration 3.33333 ([1]; second series): 1.20
- PbLuc_max_inhibition (%) [1]: 23%
- IC50 (HepG2-A16-CD81EGFP cells): > 10 µM
- Tox_max_inhibition (%) (HepG2-A16-CD81EGFP cells): 6%

Compound: C/C=C/c1ccc([C@H]2[C@@H](CO)N(CC3CCCCC3)[C@H]2CNC(C)C)cc1 [BRD-K63968422-001-01-5]
- normalized signal at concentration 10 [1, 4]: 0.94
- normalized signal at concentration 0.000508053 ([1]; first series): 1.00
- normalized signal at concentration 0.00152416 ([1]; first series): 1.12
- normalized signal at concentration 0.00457247 ([1]; first series): 0.90
- normalized signal at concentration 0.0137174 ([1]; first series): 1.14
- normalized signal at concentration 0.0411523 ([1]; first series): 1.01
- normalized signal at concentration 0.123457 ([1]; first series): 0.97
- normalized signal at concentration 0.37037 ([1]; first series): 0.96
- normalized signal at concentration 1.11111 ([1]; first series): 0.99
- normalized signal at concentration 3.33333 ([1]; first series): 1.01
- IC50 ([1]; Broad compounds, dose response): > 10 µM
- normalized signal at concentration 10 [1, 5]: 0.85
- normalized signal at concentration 0.000508053 ([1]; second series): 0.78
- normalized signal at concentration 0.00152416 ([1]; second series): 1.01
- normalized signal at concentration 0.00457247 ([1]; second series): 1.16
- normalized signal at concentration 0.0137174 ([1]; second series): 1.05
- normalized signal at concentration 0.0411523 ([1]; second series): 1.10
- normalized signal at concentration 0.123457 ([1]; second series): 1.05
- normalized signal at concentration 0.37037 ([1]; second series): 1.24
- normalized signal at concentration 1.11111 ([1]; second series): 1.02
- normalized signal at concentration 3.33333 ([1]; second series): 1.10
- PbLuc_max_inhibition (%) [1]: 22%
- IC50 (HepG2-A16-CD81EGFP cells): > 10 µM
- Tox_max_inhibition (%) (HepG2-A16-CD81EGFP cells): 9%

Compound: C[C@@H]1CCCCO[C@H](CN(C)S(=O)(=O)c2ccc(F)cc2)[C@@H](C)CN([C@@H](C)CO)C(=O)c2cc(N(C)C)ccc2O1 [BRD-K27035180-001-01-0]
- normalized signal at concentration 0.000508053 ([1]; first series of columns): 0.9801
- normalized signal at concentration 0.00152416 ([1]; first series of columns): 1.117
- normalized signal at concentration 0.00457247 ([1]; first series of columns): 0.8737
- normalized signal at concentration 0.0137174 ([1]; first series of columns): 0.9285
- normalized signal at concentration 0.0411523 ([1]; first series of columns): 1.068
- normalized signal at concentration 0.123457 ([1]; first series of columns): 0.9867
- normalized signal at concentration 0.37037 ([1]; first series of columns): 0.8491
- normalized signal at concentration 1.11111 ([1]; first series of columns): 1.048
- normalized signal at concentration 3.33333 ([1]; first series of columns): 0.9262
- normalized signal at concentration 10 ([1]; first series of columns): 0.8261
- IC50 [1, 2]: > 10 µM
- normalized signal at concentration 0.000508053 [1, 3]: 0.9613
- normalized signal at concentration 0.00152416 [1, 3]: 1.064
- normalized signal at concentration 0.00457247 [1, 3]: 0.9935
- normalized signal at concentration 0.0137174 [1, 3]: 0.8637
- normalized signal at concentration 0.0411523 [1, 3]: 1.045
- normalized signal at concentration 0.123457 [1, 3]: 0.8684
- normalized signal at concentration 0.37037 [1, 3]: 1.143
- normalized signal at concentration 1.11111 [1, 3]: 0.8369
- normalized signal at concentration 3.33333 [1, 3]: 1.121
- normalized signal at concentration 10 [1, 3]: 0.5603
- PbLuc_max_inhibition (%) [1]: 44%
- IC50 (HepG2-A16-CD81EGFP cells): > 10 µM
- Tox_max_inhibition (%) (HepG2-A16-CD81EGFP cells): 10%
